Test results from patent US8748614B2, “Substituted isoquinoline and isoquinolinone derivatives” (Sanofi, priority 2006, dated 2014).
Where a name gives a salt, the structure may show the parent alone.

Target: T1, human recombinant ROCK II (Homo sapiens, UniProt O75116)
T1 construct: recombinant human ROCK-II residues 11-552; His6 (N); purchased Upstate Ltd., Dundee, UK
Assay: Determination of Rho Kinase Inhibition (ROCK II, Caliper peptide phosphorylation assay)
Format: biochemical
Details: 60 min incubation at 32° C., respective form (salt or free base) as obtained in the examples
Experimental: Determination of Rho Kinase Inhibition
To measure Rho-kinase inhibition, IC50 values were determined according to the following protocol:
Active human recombinant ROCK II (N-terminal His6-tagged recombinant human ROCK-II residues 11-552) was purchased from Upstate Ltd., Dundee, UK. The peptide substrate, Fluorescein-AKRRRLSSLRA-COOH, was obtained from JPT Peptide Technologies, Berlin, Germany. Adenosine-5′-triphosphate (ATP), bovine serum albumine (BSA), dimethylsulphoxide (DMSO), 4-(2-Hydroxyethyl)piperazine-1-ethanesulfonic acid (Hepes), Brij-35 and dithiothreitol (DTT) were purchased from Sigma-Aldrich, Munich, Germany. Tris(hydroxymethyl)-aminomethane (Tris), magnesium chloride, NaOH, 1M HCl and EDTA were obtained from Merck Biosciences, Darmstadt, Germany. “Complete” protease inhibitor was from Roche Diagnostics, Mannheim, Germany.
Test compounds were diluted to the appropriate concentrations in buffer 1 (25 mM Tris-HCl, pH 7.4, 5 mM MgCl2, 2 mM DTT, 0.02% (w/v) BSA and 3% DMSO). The ROCK II enzyme was diluted to a concentration of 100 ng/ml in buffer 2 (25 mM Tris-HCl, pH 7.4, 5 mM MgCl2, 2 mM DTT and 0.02% (w/v) BSA). The peptide substrate and ATP were diluted to concentrations of 3 μM and 120 μM, respectively, in the buffer 2. Two μl of the compound solution were mixed with 2 μl of the diluted enzyme in a 384-well small volume microtiter plate (Greiner, Bio-One, Frickenhausen, Germany), and the kinase reaction was initiated by addition of 2 μl of the solution containing peptide substrate and ATP. After 60 min incubation at 32° C., the reaction was stopped by addition of 20 μl of a solution containing 100 mM Hepes-NaOH, pH 7.4, 0.015% (v/v) Brij-35, 45 mM EDTA and 0.227% chip coating reagent 1 (Caliper Lifescience Inc, Hopkinton, Mass.). Phosphorylation of the substrate peptide was then detected on a Caliper 3000 instrument essentially as described by Pommereau et al (J. Biomol. Screening 9(5), 409-416, 2004). Separation conditions were as follows: Pressure −1.3 psi, upstream voltage −1562 V, downstream voltage −500 V, sample sip time 200 ms. Positive controls (buffer 1 instead of compound) and negative controls (buffer 1 instead of compound and buffer 2 instead of ROCK II) were run in parallel on each plate. The following products/compounds were tested in said assay by using the respective form (salt or free base) obtained as in the examples described above and the following activities were measured.

T1 sequence (O75116 11-552): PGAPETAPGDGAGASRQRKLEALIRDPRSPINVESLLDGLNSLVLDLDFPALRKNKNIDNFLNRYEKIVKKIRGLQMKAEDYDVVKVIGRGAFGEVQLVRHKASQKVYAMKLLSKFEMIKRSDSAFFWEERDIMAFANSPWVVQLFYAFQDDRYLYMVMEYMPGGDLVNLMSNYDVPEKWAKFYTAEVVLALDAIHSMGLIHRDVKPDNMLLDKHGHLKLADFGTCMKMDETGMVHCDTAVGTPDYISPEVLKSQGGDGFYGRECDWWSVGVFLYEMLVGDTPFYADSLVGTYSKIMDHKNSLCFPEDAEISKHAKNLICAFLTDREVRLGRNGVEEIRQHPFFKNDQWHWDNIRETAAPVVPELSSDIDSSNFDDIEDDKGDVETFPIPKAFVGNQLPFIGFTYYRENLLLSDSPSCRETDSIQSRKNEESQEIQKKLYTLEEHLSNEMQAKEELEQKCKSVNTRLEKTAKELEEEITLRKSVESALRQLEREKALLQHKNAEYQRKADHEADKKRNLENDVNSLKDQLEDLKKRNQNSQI

Structure (SMILES) | IC50 [nM]
O=c1[nH]ccc2cc(NC3CN(Cc4ccccc4Cl)C3)ccc12 [Example 259, 6-[1-(2-Chloro-benzyl)-azetidin-3-ylamino]-2H-isoquinolin-1-one] | ≤ 1000
O=c1[nH]ccc2cc(N[C@@H]3CCCN(Cc4ccncc4)C3)ccc12 [Example 213, 6-((R)-1-Pyridin-4-ylmethyl-piperidin-3-ylamino)-2H-isoquinolin-1-one] | 1000 to 10000
O=c1[nH]ccc2cc(NC3CN(Cc4cccc(Cl)c4F)C3)ccc12 [Example 249, 6-[1-(3-Chloro-2-fluoro-benzyl)-azetidin-3-ylamino]-2H-isoquinolin-1-one] | ≤ 1000
O=c1[nH]ccc2cc(N[C@@H]3CCCN(Cc4ccccc4)C3)ccc12 [Example 207, 6-((R)-1-Benzyl-piperidin-3-ylamino)-2H-isoquinolin-1-one] | ≤ 1000
Cc1ccc(CN2CC[C@H](Nc3ccc4c(=O)[nH]ccc4c3)C2)cc1 [Example 236, 6-[(S)-1-(4-Methyl-benzyl)-pyrrolidin-3-ylamino]-2H-isoquinolin-1-one] | ≤ 1000
O=c1[nH]ccc2cc(N[C@@H]3CCCN(Cc4ccc5ccccc5c4)C3)ccc12 [Example 218, 6-((R)-1-Naphthalen-2-ylmethyl-piperidin-3-ylamino)-2H-isoquinolin-1-one] | ≤ 1000
CCCCN1CCC[C@@H](Nc2ccc3c(=O)[nH]ccc3c2)C1 [Example 196, 6-((R)-1-Butyl-piperidin-3-ylamino)-2H-isoquinolin-1-one] | ≤ 1000
O=c1[nH]ccc2cc([S+]([O-])C3CCNCC3)c(Cl)cc12 (stereo not shown) [Example 290, 7-Chloro-6-(piperidine-4-sulfinyl)-2H-isoquinolin-1-one hydrochloride] | 1000 to 10000
Cn1cc(CN2CC[C@H](Nc3ccc4c(=O)[nH]ccc4c3)C2)cn1 [Example 246, 6-[(S)-1-(1-Methyl-1H-pyrazol-4-ylmethyl)-pyrrolidin-3-ylamino]-2H-isoquinolin-1-one] | 1000 to 10000
CN(c1ccc2cnccc2c1)C1CCN(CCC(F)(F)F)CC1 [Example 99, Isoquinolin-6-yl-methyl-[1-(3,3,3-trifluoro-propyl)-piperidin-4-yl]-amine] | 1000 to 10000
c1cc2cc(N[C@@H]3CCCN(CC4CCCCC4)C3)ccc2cn1 [Example 169, ((R)-1-Cyclohexylmethyl-piperidin-3-yl)-isoquinolin-6-yl-amine] | 1000 to 10000
O=c1[nH]ccc2cc(N[C@H]3CCN(CC4CCCNC4)C3)ccc12 (stereo partly drawn) [Example 248, 6-((S)-1-Piperidin-3-ylmethyl-pyrrolidin-3-ylamino)-2H-isoquinolin-1-one] | 1000 to 10000
c1cc2cc(N[C@@H]3CCCN(CC4CC4)C3)ccc2cn1 [Example 166, ((R)-1-Cyclopropylmethyl-piperidin-3-yl)-isoquinolin-6-yl-amine] | 1000 to 10000
Clc1cc2cnccc2cc1SCC1CCNCC1 [Example 279, 7-Chloro-6-(piperidin-4-ylmethylsulfanyl)-isoquinoline hydrochloride] | 1000 to 10000
O=c1[nH]ccc2cc(N[C@H]3CCN(Cc4cccc(Cl)c4F)C3)ccc12 [Example 220, 6-[(S)-1-(3-Chloro-2-fluoro-benzyl)-pyrrolidin-3-ylamino]-2H-isoquinolin-1-one] | ≤ 1000
O=c1[nH]ccc2cc(N[C@H]3CCN(Cc4cc(Cl)cc(Cl)c4)C3)ccc12 [Example 234, 6-[(S)-1-(3,5-Dichloro-benzyl)-pyrrolidin-3-ylamino]-2H-isoquinolin-1-one] | 1000 to 10000
O=c1[nH]ccc2cc(SC3CCNCC3)c(Cl)cc12 [Example 286, 7-Chloro-6-(piperidin-4-ylsulfanyl)-2H-isoquinolin-1-one hydrochloride] | ≤ 1000
CCCc1cc2cnccc2cc1SC1CCNCC1 [Example 277, 6-(Piperidin-4-ylsulfanyl)-7-propyl-isoquinoline hydrochloride] | ≤ 1000
CCCN1CCC[C@@H](Nc2ccc3c(=O)[nH]ccc3c2)C1 [Example 195, 6-((R)-1-Propyl-piperidin-3-ylamino)-2H-isoquinolin-1-one] | 1000 to 10000
O=c1[nH]ccc2cc(N[C@H]3CCN(CC4CC4)C3)ccc12 [Example 226, 6-((S)-1-Cyclopropylmethyl-pyrrolidin-3-ylamino)-2H-isoquinolin-1-one] | ≤ 1000
Brc1cc2cnccc2cc1SC1CCCNCC1 (racemic) [Example 271, (Rac)-6-(Azepan-4-ylsulfanyl)-7-bromo-isoquinoline hydrochloride] | ≤ 1000
O=c1[nH]ccc2cc(S(=O)(=O)C3CCNCC3)c(Cl)cc12 [Example 288, 7-Chloro-6-(piperidine-4-sulfonyl)-2H-isoquinolin-1-one hydrochloride] | ≤ 1000
O=c1[nH]ccc2cc(NC3CN(CC4CC4)C3)ccc12 [Example 253, 6-(1-Cyclopropylmethyl-azetidin-3-ylamino)-2H-isoquinolin-1-one] | 1000 to 10000
CC(C)CCN1CCC[C@@H](Nc2ccc3c(=O)[nH]ccc3c2)C1 [Example 199, 6-[(R)-1-(3-Methyl-butyl)-piperidin-3-ylamino]-2H-isoquinolin-1-one] | ≤ 1000
CC(C)N1CC(Nc2ccc3c(=O)[nH]ccc3c2)C1 [Example 251, 6-(1-Isopropyl-azetidin-3-ylamino)-2H-isoquinolin-1-one] | 1000 to 10000
Clc1cc2cnccc2cc1SC1CCCNC1 (racemic) [Example 269, (Rac)-7-Chloro-6-(piperidin-3-ylsulfanyl)-isoquinoline hydrochloride] | ≤ 1000
O=c1[nH]ccc2cc(N[C@@H]3CCCN(Cc4ccccn4)C3)ccc12 [Example 215, 6-((R)-1-Pyridin-2-ylmethyl-piperidin-3-ylamino)-2H-isoquinolin-1-one] | 1000 to 10000
O=c1[nH]ccc2cc(N[C@H]3CCN(Cc4ccc5ccccc5c4)C3)ccc12 [Example 243, 6-((S)-1-Naphthalen-2-ylmethyl-pyrrolidin-3-ylamino)-2H-isoquinolin-1-one] | ≤ 1000
